Our source for the TGI and GI50 values is PubChem BioAssay (NCI).

Molecules are shown by their SMILES. “And” between values parts separate entries of the source, which are not always exact repeats. Equal values may be shown once.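 Assay format: 96-well plates, 48-hour exposure. GI50 = concentration required for 50% inhibition of growth. TGI denotes the concentration required for complete inhibition of growth.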

Some test systems named below: K-562 leukemia; MDA-MB-435; 786-0 renal; RXF 393 renal; SNB-75 CNS; LOX IMVI melanoma; COLO 205 colon; KM12 colon; SR leukemia; HCC-2998 colon.
What all share (assay): growth of human tumour cells (NCI), 48 h

On to `COc1ccc(CCN2COc3ccc4ccc(=O)oc4c3C2)cc1OC`, for which the TGI in the experiment on K-562 leukemia was > 100 µM; in the experiment on MDA-MB-435, > 100 µM; in the experiment on 786-0 renal it was > 100 µM; in the experiment on RXF 393 renal it was > 100 µM; in the experiment on SNB-75 CNS it was > 100 µM; in the experiment on LOX IMVI melanoma, 49.4 µM. Further, the TGI is > 100 µM in the experiment on COLO 205 colon, > 100 µM with KM12 colon, 50.5 µM in the experiment with SR leukemia and > 100 µM in the experiment on HCC-2998 colon.
Consider `C/C=C1\C[C@@H]2C(OC)Nc3cc(O)c(OC)cc3C(=O)N2C1` (some centres undefined), for which the GI50 is 0.00347 µM with K-562 leukemia; 0.00819 µM in the experiment with MDA-MB-435; 0.00529 µM with 786-0 renal; 0.00101 µM in the experiment on RXF 393 renal; 0.00482 µM with SNB-75 CNS; 0.0035 µM in the experiment with LOX IMVI melanoma. The GI50 with HCC-2998 colon is < 0.0178 µM. Also, the TGI was 2.74 µM in the experiment with K-562 leukemia; 0.0623 µM and < 0.0106 µM in the experiment with MDA-MB-435; 0.00219 µM in the experiment with RXF 393 renal; 0.0205 µM and 0.0167 µM in the experiment on SNB-75 CNS; 0.0825 µM in the experiment with LOX IMVI melanoma; 0.0212 µM in the experiment on COLO 205 colon. For the same molecule, the TGI is 0.34 µM and 0.0408 µM in the experiment with KM12 colon; 0.0602 µM in the experiment on SR leukemia; 0.0358 µM and 0.023 µM in the experiment with HCC-2998 colon.
Regarding `Cc1nc2sc(C(=O)Nc3cccc(Cl)c3C)c(N)c2cc1C(=O)c1ccccc1`, the GI50 in the experiment on K-562 leukemia was 0.199 µM; in the experiment on MDA-MB-435, 0.0988 µM; in the experiment with 786-0 renal, 0.296 µM; in the experiment with RXF 393 renal, 0.198 µM; in the experiment on SNB-75 CNS, 0.121 µM; in the experiment on LOX IMVI melanoma, 0.331 µM. In addition, the GI50 was 0.293 µM in the experiment with COLO 205 colon, 0.225 µM with KM12 colon, 0.131 µM in the experiment with SR leukemia and 1.01 µM with HCC-2998 colon. Moreover, the TGI is > 50 µM in the experiment on K-562 leukemia; 0.257 µM in the experiment with MDA-MB-435; > 50 µM in the experiment with 786-0 renal; > 50 µM with LOX IMVI melanoma; 5.02 µM in the experiment on COLO 205 colon; > 50 µM in the experiment with KM12 colon. The results for the TGI with SR leukemia and with HCC-2998 colon were 16.9 µM and > 50 µM, respectively.
For the molecule `COc1ccc2c(c1)c(-c1nc(-c3cn(C)c4ncccc34)cs1)cn2CCCCN1CCOCC1`, the GI50 with K-562 leukemia was 0.675 µM; with MDA-MB-435, 1.12 µM; in the experiment on 786-0 renal it was 1.57 µM; with RXF 393 renal, 1.2 µM; in the experiment on SNB-75 CNS, 0.873 µM; in the experiment on LOX IMVI melanoma it was 1.32 µM. Further, the GI50 in the experiment on COLO 205 colon was 1.69 µM; with KM12 colon, 1.42 µM; in the experiment on SR leukemia, 0.724 µM; in the experiment on HCC-2998 colon, 1.73 µM. Moreover, the TGI turned out to be 1.61 µM in the experiment with K-562 leukemia; 2.58 µM in the experiment on MDA-MB-435; 3.44 µM in the experiment on 786-0 renal; 2.65 µM in the experiment with RXF 393 renal; 2.67 µM in the experiment with SNB-75 CNS; 2.68 µM in the experiment on LOX IMVI melanoma. In addition, the TGI in the experiment with COLO 205 colon was determined as 3.56 µM; with KM12 colon, 3.09 µM; with SR leukemia, 1.98 µM; in the experiment with HCC-2998 colon, 3.77 µM.
`CC(C)NCCCCCNc1cc(O)cc2cccnc12`: the GI50 is > 100 µM with K-562 leukemia; > 100 µM with MDA-MB-435; > 100 µM in the experiment on 786-0 renal; > 100 µM in the experiment on RXF 393 renal; > 58.2 µM in the experiment on SNB-75 CNS; > 100 µM in the experiment on LOX IMVI melanoma. In addition, the GI50 with COLO 205 colon was 1.88 µM; with KM12 colon it was > 100 µM; with SR leukemia, > 100 µM; in the experiment with HCC-2998 colon it was > 44.2 µM. Also, the TGI with K-562 leukemia, in the experiment on MDA-MB-435, with 786-0 renal, in the experiment on RXF 393 renal, in the experiment with SNB-75 CNS and with LOX IMVI melanoma was > 100 µM each time. Further, the TGI in the experiment on COLO 205 colon, in the experiment on KM12 colon, with SR leukemia and in the experiment with HCC-2998 colon was > 100 µM in each case.
Turning to `COc1ccc(NC(=O)CC(=O)n2nc(-c3ccccc3)c(N=Nc3ccccc3C)c2-c2ccccc2)cc1`, the TGI was > 100 µM in the experiment with K-562 leukemia; > 100 µM in the experiment with MDA-MB-435; 35.5 µM in the experiment with 786-0 renal; 33.4 µM in the experiment with RXF 393 renal; 36.6 µM with SNB-75 CNS; > 100 µM in the experiment on LOX IMVI melanoma. Besides, the TGI with COLO 205 colon was 99.8 µM; in the experiment with KM12 colon it was > 100 µM; in the experiment with SR leukemia, > 100 µM; with HCC-2998 colon, > 100 µM.
For `O=[N+]([O-])c1ccc(NN=C2c3ccccc3Cc3ccccc32)c([N+](=O)[O-])c1`, the TGI in the experiment with K-562 leukemia was > 100 µM; with MDA-MB-435, 5.8 µM; with 786-0 renal, > 100 µM; in the experiment with RXF 393 renal, > 100 µM; in the experiment on SNB-75 CNS, 75.1 µM; in the experiment with LOX IMVI melanoma, > 100 µM. For the same molecule, the TGI with COLO 205 colon is > 100 µM; in the experiment on KM12 colon, 79.9 µM; with SR leukemia, 11.5 µM; in the experiment on HCC-2998 colon it was > 100 µM.
As for `CN1CCN(CCCOc2ccc3nc(Nc4ccc(C(F)(F)F)c(Cl)c4)ccc3c2)CC1`, the GI50 in the experiment on K-562 leukemia was 0.595 µM; in the experiment on MDA-MB-435, 1.63 µM; in the experiment with 786-0 renal, 1.67 µM; in the experiment on RXF 393 renal, 1.42 µM; in the experiment on SNB-75 CNS, 0.903 µM; in the experiment with LOX IMVI melanoma, 1.07 µM. For the same molecule, the GI50 was 1.7 µM in the experiment on COLO 205 colon, 1.5 µM in the experiment on KM12 colon, 1.17 µM in the experiment with SR leukemia and 1.72 µM in the experiment with HCC-2998 colon. Further, the TGI in the experiment with K-562 leukemia is 2.07 µM; in the experiment on MDA-MB-435, 3.16 µM; with 786-0 renal, 3.21 µM; in the experiment with RXF 393 renal, 3.03 µM; with SNB-75 CNS it was 2.94 µM; in the experiment on LOX IMVI melanoma it was 2.32 µM. Also, the TGI in the experiment with COLO 205 colon came to 3.49 µM; in the experiment with KM12 colon, 3.05 µM; in the experiment with SR leukemia it was 4.01 µM; in the experiment on HCC-2998 colon, 3.26 µM.
